Measurements reported in doi:10.1101/2023.11.24.568596v1 (biorxiv, 2023).

What was measured:
Conditions in all cases: binder
HIPK2 = HIPK2 (Homo sapiens, UniProt Q9H2X6)
GAK = molecular target: T1, GAK (Homo sapiens, UniProt O14976)
T1 sequence (O14976 1-1311): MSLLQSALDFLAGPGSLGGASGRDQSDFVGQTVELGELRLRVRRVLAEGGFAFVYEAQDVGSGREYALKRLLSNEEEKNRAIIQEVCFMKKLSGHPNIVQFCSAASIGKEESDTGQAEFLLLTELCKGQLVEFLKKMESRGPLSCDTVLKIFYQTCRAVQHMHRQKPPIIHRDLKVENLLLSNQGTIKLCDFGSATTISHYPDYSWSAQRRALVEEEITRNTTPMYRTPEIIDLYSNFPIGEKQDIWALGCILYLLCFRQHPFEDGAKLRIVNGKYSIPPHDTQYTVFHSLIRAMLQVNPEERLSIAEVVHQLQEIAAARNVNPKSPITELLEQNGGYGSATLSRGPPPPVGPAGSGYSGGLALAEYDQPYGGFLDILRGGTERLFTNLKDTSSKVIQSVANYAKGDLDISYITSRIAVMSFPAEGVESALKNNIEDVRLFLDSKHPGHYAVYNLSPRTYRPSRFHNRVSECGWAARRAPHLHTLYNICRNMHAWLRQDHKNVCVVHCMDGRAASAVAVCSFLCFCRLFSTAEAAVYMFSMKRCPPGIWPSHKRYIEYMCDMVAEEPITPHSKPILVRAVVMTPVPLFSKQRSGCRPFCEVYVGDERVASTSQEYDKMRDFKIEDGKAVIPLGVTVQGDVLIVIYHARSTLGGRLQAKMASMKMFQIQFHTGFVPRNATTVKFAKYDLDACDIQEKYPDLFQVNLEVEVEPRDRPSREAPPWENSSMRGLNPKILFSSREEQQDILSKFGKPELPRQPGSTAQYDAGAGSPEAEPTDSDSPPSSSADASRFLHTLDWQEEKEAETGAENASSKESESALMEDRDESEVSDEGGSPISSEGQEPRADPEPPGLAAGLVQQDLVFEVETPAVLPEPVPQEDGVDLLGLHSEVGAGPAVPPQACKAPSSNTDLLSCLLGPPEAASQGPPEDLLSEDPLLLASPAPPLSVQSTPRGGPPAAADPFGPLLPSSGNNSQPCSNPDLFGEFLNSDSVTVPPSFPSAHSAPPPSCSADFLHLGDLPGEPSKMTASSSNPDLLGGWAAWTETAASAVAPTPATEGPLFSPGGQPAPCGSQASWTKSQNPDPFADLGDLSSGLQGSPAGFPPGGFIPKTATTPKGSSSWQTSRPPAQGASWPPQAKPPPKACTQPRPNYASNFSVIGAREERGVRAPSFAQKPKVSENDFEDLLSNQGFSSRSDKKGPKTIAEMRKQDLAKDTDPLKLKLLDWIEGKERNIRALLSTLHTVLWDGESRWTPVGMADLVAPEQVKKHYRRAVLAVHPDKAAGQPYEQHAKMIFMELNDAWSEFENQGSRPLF

BMX = molecular target: T2, BMX (Homo sapiens, UniProt P51813)
T2 sequence (P51813 1-675): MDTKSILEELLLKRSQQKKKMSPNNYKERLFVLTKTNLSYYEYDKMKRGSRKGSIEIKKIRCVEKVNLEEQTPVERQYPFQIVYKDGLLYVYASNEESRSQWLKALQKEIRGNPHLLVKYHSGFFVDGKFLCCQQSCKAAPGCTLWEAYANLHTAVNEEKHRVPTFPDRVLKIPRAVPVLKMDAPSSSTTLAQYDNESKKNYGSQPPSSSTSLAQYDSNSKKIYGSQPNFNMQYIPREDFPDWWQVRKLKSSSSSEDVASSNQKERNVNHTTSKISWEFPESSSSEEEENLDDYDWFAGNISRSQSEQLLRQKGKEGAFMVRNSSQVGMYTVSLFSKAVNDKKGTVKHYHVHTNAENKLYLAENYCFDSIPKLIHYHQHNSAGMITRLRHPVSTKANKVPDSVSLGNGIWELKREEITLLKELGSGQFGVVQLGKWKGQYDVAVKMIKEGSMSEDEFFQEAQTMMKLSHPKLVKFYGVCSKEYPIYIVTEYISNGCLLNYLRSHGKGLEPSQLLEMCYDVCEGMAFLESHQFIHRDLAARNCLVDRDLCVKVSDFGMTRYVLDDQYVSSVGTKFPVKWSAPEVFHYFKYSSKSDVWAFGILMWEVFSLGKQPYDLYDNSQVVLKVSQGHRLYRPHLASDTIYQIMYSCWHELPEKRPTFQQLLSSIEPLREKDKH

HIPK2, sequence (Q9H2X6 whole entry): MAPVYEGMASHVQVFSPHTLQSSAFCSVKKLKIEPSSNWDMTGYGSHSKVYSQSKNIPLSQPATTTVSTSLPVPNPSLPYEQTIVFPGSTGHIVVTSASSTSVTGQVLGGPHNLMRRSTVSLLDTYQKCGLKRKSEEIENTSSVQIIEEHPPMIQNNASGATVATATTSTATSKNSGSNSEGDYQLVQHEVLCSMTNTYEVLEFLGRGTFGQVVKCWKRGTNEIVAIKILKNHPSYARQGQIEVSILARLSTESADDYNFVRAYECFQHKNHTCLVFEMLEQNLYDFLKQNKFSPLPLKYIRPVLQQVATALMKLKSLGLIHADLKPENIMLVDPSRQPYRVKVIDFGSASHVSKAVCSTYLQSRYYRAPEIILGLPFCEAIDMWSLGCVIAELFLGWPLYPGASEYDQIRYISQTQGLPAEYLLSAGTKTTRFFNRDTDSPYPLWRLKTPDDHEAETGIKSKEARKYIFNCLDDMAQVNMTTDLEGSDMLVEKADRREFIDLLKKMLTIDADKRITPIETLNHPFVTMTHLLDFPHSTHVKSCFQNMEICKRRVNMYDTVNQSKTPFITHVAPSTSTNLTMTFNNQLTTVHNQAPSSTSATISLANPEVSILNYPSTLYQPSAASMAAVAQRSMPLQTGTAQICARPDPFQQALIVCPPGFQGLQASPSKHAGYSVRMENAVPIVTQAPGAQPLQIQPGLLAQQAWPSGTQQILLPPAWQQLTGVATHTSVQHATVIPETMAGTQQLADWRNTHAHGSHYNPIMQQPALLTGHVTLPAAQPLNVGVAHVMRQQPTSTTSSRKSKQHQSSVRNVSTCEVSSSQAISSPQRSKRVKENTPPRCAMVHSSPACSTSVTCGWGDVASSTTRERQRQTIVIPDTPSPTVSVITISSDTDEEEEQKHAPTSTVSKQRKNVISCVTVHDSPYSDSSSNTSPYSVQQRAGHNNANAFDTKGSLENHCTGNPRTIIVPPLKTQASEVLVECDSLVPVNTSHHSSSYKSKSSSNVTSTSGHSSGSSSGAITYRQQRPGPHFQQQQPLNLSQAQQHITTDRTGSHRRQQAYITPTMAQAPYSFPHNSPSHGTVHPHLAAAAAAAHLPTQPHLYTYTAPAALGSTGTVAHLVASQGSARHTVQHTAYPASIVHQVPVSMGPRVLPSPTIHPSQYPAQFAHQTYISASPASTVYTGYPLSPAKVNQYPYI

Q: What does the source list for Cc1cccc(-c2ccc(-c3cc4cnc(NCCCN5CCCC5=O)nc4n(CCCCN)c3=O)c(Cl)c2)n1 [compound 27, MR30]?
A: ΔTm MR30 (27) (HIPK2): 0.0 °C; ΔTm MR30 (27) (GAK): 4.3 °C; ΔTm MR30 (27) (BMX): 1.7 °C

Q: Cc1cccc(-c2ccc(-c3cc4cnc(Nc5cc(C(F)(F)F)ccc5C)nc4n(CCCCN)c3=O)c(Cl)c2)n1 [compound 28, 8-(4-Aminobutyl)-6-(2-chloro-4-(6-methylpyridin-2-yl)phenyl)-2-((2-methyl-5-(trifluoromethyl)phenyl)amino)pyrido[2,3-d]pyrimidin-7(8H)-one] was tested. Which “ΔTm 28” value (HIPK2) did it give?
A: Its value is -0.5 °C.

Q: What about the “ΔTm 28” value (GAK) of the same compound?
A: Its value is 9.4 °C.

Q: What about the “ΔTm 28” value (BMX) of the same compound?
A: Its value is 3.1 °C.

Q: What does the source list for Cc1cccc(-c2ccc(-c3cc4cnc(NCCCN5CCNCC5)nc4n(CCCCN)c3=O)c(Cl)c2)n1 [compound 29, 8-(4-Aminobutyl)-6-(2-chloro-4-(6-methylpyridin-2-yl)phenyl)-2-((3-(piperazin-1-yl)propyl)amino)pyrido[2,3-d]pyrimidin-7(8H)-one]?
A: ΔTm 29 (HIPK2): 0.6 °C; ΔTm 29 (GAK): 4.2 °C; ΔTm 29 (BMX): 2.1 °C

Q: With Cc1cccc(-c2ccc(-c3cc4cnc(Nc5ccc(CCCO)cc5)nc4n(CCCCN)c3=O)c(Cl)c2)n1 [compound 30, 8-(4-Aminobutyl)-6-(2-chloro-4-(6-methylpyridin-2-yl)phenyl)-2-((4-(3-hydroxypropyl)phenyl)amino)pyrido[2,3-d]pyrimidin-7(8H)-one] as the compound, how does the “ΔTm 30” value (HIPK2) read?
A: The value was 2.6 °C.

Q: What about the “ΔTm 30” value (GAK) of the same compound?
A: Its value is 13.2 °C.

Q: What about the “ΔTm 30” value (BMX) of the same compound?
A: The value was 6.6 °C.

Q: Which results are given for Cc1cccc(-c2ccc(-c3cc4cnc(Nc5ccc(O)cc5)nc4n(CCCCN)c3=O)c(Cl)c2)n1 [compound 31, 8-(4-Aminobutyl)-6-(2-chloro-4-(6-methylpyridin-2-yl)phenyl)-2-((4-hydroxyphenyl)amino) pyrido[2,3-d]pyrimidin-7(8H)-one]?
A: ΔTm 31 (HIPK2): 2.6 °C; ΔTm 31 (GAK): 13.3 °C; ΔTm 31 (BMX): 7.0 °C

Q: Which results are given for Cc1cccc(-c2ccc(-c3cc4cnc(Nc5ccc(C)c(O)c5)nc4n(CCCCN)c3=O)c(Cl)c2)n1 [compound 32, 8-(4-Aminobutyl)-6-(2-chloro-4-(6-methylpyridin-2-yl)phenyl)-2-((3-hydroxy-4-methylphenyl)amino)pyrido[2,3-d]pyrimidin-7(8H)-one]?
A: ΔTm 32 (HIPK2): 2.6 °C; ΔTm 32 (GAK): 13.3 °C; ΔTm 32 (BMX): 7.3 °C
